These results are taken from patent publication US9751854B2 (Millennium Pharmaceuticals, Inc., priority 2014, dated 2017).

Sequence of human VPS34 (Q8NEB9 whole entry): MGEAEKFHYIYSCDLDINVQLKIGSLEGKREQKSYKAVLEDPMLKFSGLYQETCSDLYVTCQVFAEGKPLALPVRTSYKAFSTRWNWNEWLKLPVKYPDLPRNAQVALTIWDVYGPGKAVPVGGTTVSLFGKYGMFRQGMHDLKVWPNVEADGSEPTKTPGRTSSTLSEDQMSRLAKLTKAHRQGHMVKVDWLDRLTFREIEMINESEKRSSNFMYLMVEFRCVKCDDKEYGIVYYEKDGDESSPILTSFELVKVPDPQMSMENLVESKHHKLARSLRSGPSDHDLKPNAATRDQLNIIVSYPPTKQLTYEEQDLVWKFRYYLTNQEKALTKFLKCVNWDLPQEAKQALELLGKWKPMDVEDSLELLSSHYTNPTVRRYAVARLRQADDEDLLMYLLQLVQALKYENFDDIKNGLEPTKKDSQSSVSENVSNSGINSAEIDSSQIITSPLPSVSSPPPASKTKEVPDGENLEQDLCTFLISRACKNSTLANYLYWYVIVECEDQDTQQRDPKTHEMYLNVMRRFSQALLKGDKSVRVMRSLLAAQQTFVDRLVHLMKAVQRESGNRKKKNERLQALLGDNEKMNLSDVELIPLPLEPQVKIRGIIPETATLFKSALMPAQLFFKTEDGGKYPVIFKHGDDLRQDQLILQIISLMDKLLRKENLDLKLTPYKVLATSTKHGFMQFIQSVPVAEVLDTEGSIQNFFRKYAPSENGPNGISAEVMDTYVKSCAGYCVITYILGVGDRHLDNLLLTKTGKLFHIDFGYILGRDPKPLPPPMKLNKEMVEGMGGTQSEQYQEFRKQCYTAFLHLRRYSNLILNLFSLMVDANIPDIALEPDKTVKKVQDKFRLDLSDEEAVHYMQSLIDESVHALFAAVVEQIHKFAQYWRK

The first assay addresses human VPS34 (Homo sapiens (Human), UniProt Q8NEB9). The experiment in a line: Human VPS34 enzyme assay (Adapta TR-FRET ADP detection). It counts as biochemical.
Details: not given
For orientation: TR-FRET usually uses a lanthanide donor and a delayed reading to cut background.
Usually IC50 stands for the concentration at which inhibition is half-maximal. In the case of `CC(=O)Nc1cc(-c2cnc(N)c(S(=O)(=O)CC3CC3)c2)ccn1` [Compound I-208], the IC50 is 10 to 50 nM and the “Percent Inhibition” value was more than 99%.

For the molecule `Cc1cc(Nc2cc(-c3cnc(Cl)c(NS(=O)(=O)c4ccc(F)cc4F)c3C)ccn2)nc(C)n1` [Compound I-218, N-{6-chloro-2′-[(2,6-dimethylpyrimidin-4-yl)amino]-4-methyl-3,4′-bipyridin-5-yl}-2,4-difluorobenzenesulfonamide], the “Percent Inhibition” value is more than 99%.

The assay is the same for the next values; noted with them: IC50 range class.
As to `CC(=O)Nc1cc(-c2cnc(N)c(S(=O)(=O)Cc3ccccc3F)c2)ccn1` [Compound I-197, N-{6-amino-5-[(2-fluorobenzyl)sulfonyl]-3,4′-bipyridin-2′-yl]acetamide], the IC50 is 10 to 50 nM.

In the case of `CC(=O)Nc1cc(-c2cncc(C(=O)/C=C/c3ccc(F)cc3)c2)ccn1` [Compound I-198, N-[5-[(2E)-3-(4-fluorophenyl)prop-2-enoyl]-3,4′-bipyridin-2′-yl}acetamide], the IC50 is more than 100 nM.

`CC(=O)Nc1cc(-c2cnc3ccn(S(=O)(=O)C4CC4)c3c2)ccn1` [Compound I-199, N-{4-[1-(cyclopropylsulfonyl)-1H-pyrrolo[3,2-b]pyridin-6-yl]pyridin-2-yl}acetamide] showed an IC50 of less than 10 nM.

For the molecule `CC(=O)Nc1cc(-c2cnc(N)c(C(=O)N3CCC3)c2)ccn1` [Compound I-200, N-[6-amino-5-(azetidin-1-ylcarbonyl)-3,4′-bipyridin-2′-yl]acetamide], the IC50 was less than 10 nM.

Molecule `CCc1ncc(-c2ccnc(NC(C)=O)c2)cc1NS(=O)(=O)c1ccc(F)cc1F` [Compound I-201, N-(5-{[(2,4-difluorophenyl)sulfonyl]amino}-6-ethyl-3,4′-bipyridin-2′-yl)acetamide] showed an IC50 of less than 10 nM.

In turn, `CC(=O)Nc1cc(-c2cncc(N(CC3CC3)S(C)(=O)=O)c2)ccn1` [Compound I-202, N-{5-[(cyclopropylmethyl)(methylsulfonyl)amino]-3,4′-bipyridin-2′-yl}acetamide] registered an IC50 of 50 to 100 nM.

As for `CC(=O)Nc1cc(-c2cnc(C)c(NS(=O)(=O)c3ccsc3)c2)ccn1` [Compound I-203, N-{6-methyl-5-[(3-thienylsulfonyl)amino]-3,4′-bipyridin-2′-yl}acetamide], the IC50 was less than 10 nM.

In turn, `CC(=O)Nc1cc(-c2cnc(N)c(S(=O)(=O)Nc3cccnc3)c2)ccn1` [Compound I-204, N-[6-amino-5-(pyridin-3-ylsulfamoyl)-3,4′-bipyridin-2′-yl]acetamide] came in with an IC50 of less than 10 nM.

Molecule `CC(=O)Nc1cc(-c2cnc(N)c(S(=O)(=O)Cc3cccnc3)c2)ccn1` [Compound I-205, N-{6-amino-5-[(pyridin-3-ylmethyl)sulfonyl]-3,4′-bipyridin-2′-yl}acetamide] had an IC50 of 10 to 50 nM.

Molecule `CC(=O)Nc1cc(-c2cnc(C)c(NS(=O)(=O)c3ccc(F)cc3Cl)c2)ccn1` [Compound I-206, N-(5-{[(2-chloro-4-fluorophenyl)sulfonyl]amino}-6-methyl-3,4′-bipyridin-2′-yl)acetamide] registered a half-maximal inhibitory concentration (IC50) of less than 10 nM.

On to `CC(=O)Nc1cc(-c2cnc(N)c(S(=O)(=O)Nc3ccc(Cl)cc3)c2)ccn1` [Compound I-207, N-{6-amino-5-[(4-chlorophenyl)sulfamoyl]-3,4′-bipyridin-2′-yl}acetamide], for which the IC50 is less than 10 nM.

For `CC(=O)Nc1cc(-c2cnc3[nH]ncc3c2)c(C)cn1` [Compound I-209, N-[5-methyl-4-(1H-pyrazolo[3,4-b]pyridin-5-yl)pyridin-2-yl]acetamide], the 50% inhibitory concentration (IC50) was more than 100 nM.

`CC(=O)Nc1cc(-c2cnc(N)c(C(=O)NC3CCOCC3)c2)ccn1` [Compound I-210, 2′-acetamido-6-amino-N-(tetrahydro-2H-pyran-4-yl)-3,4′-bipyridine-5-carboxamide] registered an IC50 of 50 to 100 nM.

Consider `CC(=O)Nc1cc(-c2cnc(C)c(NS(=O)(=O)c3ccccc3C)c2)ccn1` [Compound I-211, N-(6-methyl-5-{[(2-methylphenyl)sulfonyl]amino}-3,4′-bipyridin-2′-yl)acetamide], for which the IC50 is less than 10 nM.

The molecule `CC(=O)Nc1cc(-c2cnc(C)c(N(C)S(=O)(=O)C3CC3)c2)ccn1` [Compound I-212, N-{5-[(cyclopropylsulfonyl)(methyl)amino]-6-methyl-3,4′-bipyridin-2′-yl}acetamide] gave an IC50 of 50 to 100 nM.

Take `CC(=O)Nc1cc(-c2cnc(Cl)c(C(=O)N(C)C)c2)ccn1` [Compound I-213, 2′-acetamido-6-chloro-N,N-dimethyl-3,4′-bipyridine-5-carboxamide]: the IC50 fell in the range of 50 to 100 nM.

Consider `CC(=O)Nc1cc(-c2cnc(C)c(NS(=O)(=O)N3CCCCC3)c2)ccn1` [Compound I-214, N-{6-methyl-5-[(piperidin-1-ylsulfonyl)amino]-3,4′-bipyridin-2′-yl}acetamide], for which the IC50 is less than 10 nM.

The molecule `Cc1nccc(Nc2cc(-c3cnc(Cl)c(S(=O)(=O)NC4CCC4)c3)ccn2)n1` [Compound I-215, 6-chloro-N-cyclobutyl-2′-((2-methylpyrimidin-4-yl)amino)-[3,4′-bipyridine]-5-sulfonamide] had an IC50 of 10 to 50 nM.

As for `N=C(N)NC(=O)c1cc(-c2ccnc(Nc3ccncn3)c2)cnc1N` [Compound I-216, 6-Amino-N-carbamimidoyl-2′-(pyrimidin-4-ylamino)-3,4′-bipyridine-5-carboxamide], the IC50 lay in the range of 50 to 100 nM.

`Cc1cc(Nc2cc(-c3cnc(Cl)c(NS(=O)(=O)c4ccc(F)cc4F)c3C)ccn2)nc(C)n1` [Compound I-218, N-{6-chloro-2′-[(2,6-dimethylpyrimidin-4-yl)amino]-4-methyl-3,4′-bipyridin-5-yl}-2,4-difluorobenzenesulfonamide] returned an IC50 of 10 to 50 nM.

In turn, `CC(=O)Nc1cc(-c2cnc(C)c(NS(=O)(=O)c3ccc(F)cc3F)c2)cc[n+]1[O-]` [Compound I-219, N-[4-(5-{[(2,4-difluorophenyl)sulfonyl]amino}-6-methylpyridin-3-yl)-1-oxidopyridin-2-yl]acetamide] had an IC50 of 50 to 100 nM.

Consider `COc1ncc(-c2ccnc(NC(C)=O)c2)cc1NS(=O)(=O)N(C)C` [Compound I-220, N-{5-[(dimethylsulfamoyl)amino]-6-methoxy-3,4′-bipyridin-2′-yl}acetamide], for which the IC50 lay within 10 to 50 nM.

Turning to `Cc1nccc(Nc2cc(-c3cnc(C)c(C(=O)N4CC(F)(F)C4)c3)ccn2)n1` [Compound I-221, (3,3-difluoroazetidin-1-yl){6-methyl-2′-[(2-methylpyrimidin-4-yl)amino]-3,4′-bipyridin-5-yl]methanone], the IC50 lay within 10 to 50 nM.

In the case of `CNc1ncc(-c2ccnc(Nc3ccncn3)c2)cc1C(=O)N(C)C12CC(C1)C2` [Compound I-222, N-(bicyclo[1.1.1]pent-1-yl)-N-methyl-6-(methylamino)-2′-(pyrimidin-4-ylamino)-3,4′-bipyridine-5-carboxamide], the IC50 fell in the range of 10 to 50 nM.

`Cc1nccc(Nc2cc(-c3cnc(C)c(C(=S)N4CCC4)c3)ccn2)n1` [Compound I-223, Azetidin-1-yl{6-methyl-2′-[(2-methylpyrimidin-4-yl)amino]-3,4′-bipyridin-5-yl}methanethione]: the IC50 was in the range of 10 to 50 nM.

`COc1ncc(-c2ccnc(Nc3ccnc(C)n3)c2)cc1S(=O)(=O)NC1CCC1` [Compound I-224, N-cyclobutyl-6-methoxy-2′-[(2-methylpyrimidin-4-yl)amino]-3,4′-bipyridine-5-sulfonamide] had an IC50 of 10 to 50 nM.

With `COc1nccc(Nc2cc(-c3cnc(Cl)c(NS(=O)(=O)c4ccc(F)cc4F)c3C)ccn2)n1` [Compound I-225, N-{6-chloro-2′-[(2-methoxypyrimidin-4-yl)amino]-4-methyl-3,4′-bipyridin-5-yl}-2,4-difluorobenzenesulfonamide], the IC50 is less than 10 nM.

For the molecule `Cc1nccc(Nc2cc(-c3cnc(Cl)c(N)c3C)ccn2)n1` [Compound I-226, 6-chloro-4-methyl-N-2′-(2-methylpyrimidin-4-yl)-3,4′-bipyridine-2′,5-diamine], the concentration for half-maximal inhibition (IC50) is 10 to 50 nM.

With `CC(=O)Nc1cc(-c2cnc(Cl)c(NS(=O)(=O)c3cc(F)ccc3F)c2C)ccn1` [Compound I-227, N-(6-chloro-5-{[(2,5-difluorophenyl)sulfonyl]amino)-4-methyl-3,4′-bipyridin-2′-yl)acetamide], the IC50 was 10 to 50 nM.

Molecule `Cc1ncc(-c2ccnc(Nc3ccc(C#N)cn3)c2)cc1NS(=O)(=O)c1ccc(F)cc1F` [Compound I-228, N-{2′-[(5-cyanopyridin-2-yl)amino]-6-methyl-3,4′-bipyridin-5-yl}-2,4-difluorobenzenesulfonamide] registered an IC50 of less than 10 nM.

For `Cc1nc(Nc2cc(-c3cnc(C)c(NS(=O)(=O)N(C)C)c3)ccn2)ccc1C#N` [Compound I-229, N-{2′-[(5-cyano-6-methylpyridin-2-yl)amino]-6-methyl-3,4′-bipyridin-5-yl}-N,N-dimethylsulfuric diamide], the IC50 is less than 10 nM.

The molecule `COc1nccc(Nc2cc(-c3cnc(N)c(C(=O)N(C)C45CC(C4)C5)c3)ccn2)n1` [Compound I-230, 6-amino-N-(bicyclo[1.1.1]pent-1-yl)-2′-((2-methoxypyrimidin-4-yl)amino)-N-methyl-[3,4′-bipyridine]-5-carboxamide] displayed an IC50 of 10 to 50 nM.

Turning to `Nc1cncc(-c2ccnc(N)c2)c1` [Compound I-231, 3,4′-bipyridine-2′,5-diamine], the IC50 was more than 100 nM.

In turn, `Cc1nccc(Nc2cc(-c3cnc(Cl)c(C(=O)N4CCC4)c3)ccn2)n1` [Compound I-232, azetidin-1-yl[6-chloro-2′-[(2-methylpyrimidin-4-yl)amino]-3,4′-bipyridin-5-yl}methanone] had an IC50 of 10 to 50 nM.

For the molecule `Cc1ncc(-c2ccnc(Nc3nc4ccccc4o3)c2)cc1NS(=O)(=O)c1ccc(F)cc1F` [Compound I-233, N-[2′-(1,3-benzoxazol-2-ylamino)-6-methyl-3,4′-bipyridin-5-yl}2,4-difluorobenzenesulfonamide], the IC50 lay in the range of 10 to 50 nM.

Turning to `Cc1nccc(Nc2cc(-c3cncc(C(=O)N(C)C45CC(C4)C5)c3)ccn2)n1` [Compound I-234, N-(bicyclo[1.1.1]pent-1-yl)-N-methyl-2′-[(2-methylpyrimidin-4-yl)amino]-3,4′-bipyridine-5-carboxamide], the IC50 was in the range of 10 to 50 nM.

In turn, `Cc1ccc2ccc(Nc3cc(-c4cnc(C)c(NS(=O)(=O)c5ccc(F)cc5F)c4)ccn3)nc2n1` [Compound I-235, 2,4-difluoro-N-{6-methyl-2′-[(7-methyl-1,8-naphthyridin-2-yl)amino]-3,4′-bipyridin-5-yl}benzenesulfonamide] registered an IC50 of 10 to 50 nM.
